Measurements from patent publication US20100137398A1, “USE OF HDAC INHIBITORS FOR THE TREATMENT OF GASTROINTESTINAL CANCERS” (NOVARTIS AG, priority 2007, published 2010).

What was measured:
[1] = test system: AsPC1 pancreatic cancer cell line; assay: Cell proliferation assay, pancreatic cancer cell lines; type: cell-based
Text: (§1) The MTT is a colorimetric assay to determine the cell proliferation rate. The yellow tetrazolium MTT (3-(4, 5-dimethylthiazolyl-2)-2, 5-diphenyltetrazolium bromide) is reduced, by metabolically active cells, in part by the action of dehydrogenase enzymes, to generate reducing equivalents such as NADH and NADPH. The resulting intracellular purple formazan can be solubilized and quantified by spectrophotometric means. The signals produced is directly proportional to the cell numbers. Describing the MTT assay in detail, experiments were done using six-point or 9 point drug titrations in multi-well tissue culture dishes, with outer rows left empty. Cells were suspended in complete media at densities of between 10^3 and 10^4 cell/ml, respectively, and added per well. The appropriate medium (200 μl) was then added. Twenty-four hours later, 10 μl of MTS solution, were added to one plates to determine the activity at the time of compound addition (T0). This plate was incubated at 37° for 4 hours and the optical density was measured on a Molecular Devices Thermomax at 490 nm using the Softmax program. The T0 plate served as a reference for initial activity at the beginning of the experiment.
(§2) Compound addition began 24 hours after seeding, the same time as the T0 determination. Serial dilutions at 4-fold 2-fold, 1-fold, 0.5-fold, 0.25-fold and 0.125-fold of previously determined IC50 values of each compound were made in a 96-deep well plate with the highest concentrations on the edge of the plate. Each of the six dilutions were added in triplicate and complete medium was added to the empty outer rows, without cells. The compounds were added to the plates singly or in combination with Compound III (LBH589). The plates were incubated at 37° C. for 72 hours from seeding. The MTS solution was added (as for the T0 plate) and read four hours later. In order to analyze the data, the average value of media alone (background) was subtracted from each experimental well and the triplicate values were averaged for each compound dilution. The following formulas were used to calculate percent growth.
(§3) If X>T0, % Growth=100×(X−T0)/(GC−T0))
(§4) If X<T0, % Growth=100×(X−T0)/T0)
(§5) T0=average value of T0 minus background
(§6) GC=average value of untreated cells (in triplicate) minus background X=average value, of compound treated cells (in triplicate) minus background
(§7) IC50 the concentration of LBH589 required to inhibit cell growth by 50% and LD50s the concentration required to reduce cell number (kill cells) to 50% the original innoculum were determined. The “% Growth” was plotted against compound concentration and used to calculate IC50s and LD50s, employing the user-defined spline function in Microsoft Excel.
(§8) Pancreatic cancer cell lines were treated with DMSO vehicle control or varying concentrations of LBH589 for 3 days. Cell proliferation was measured on the day of cell plating and on the third day post-treatment. IC50 and LD50 values were calculated as described above.

[2] = test system: BxPC3 pancreatic cancer cell line; assay: as above; type: cell-based
Text: as §1, §2, §3, §4, §5, §6, §7, §8

[3] = test system: Capan1 pancreatic cancer cell line; assay: as above; type: cell-based
Text: as §1, §2, §3, §4, §5, §6, §7, §8

[4] = test system: HPAC pancreatic cancer cell line; assay: as above; type: cell-based
Text: as §1, §2, §3, §4, §5, §6, §7, §8

[5] = test system: Hs766T pancreatic cancer cell line; assay: as above; type: cell-based
Text: as §1, §2, §3, §4, §5, §6, §7, §8

[6] = test system: MiaPaCa2 pancreatic cancer cell line; assay: as above; type: cell-based
Text: as §1, §2, §3, §4, §5, §6, §7, §8

[7] = test system: Panc1 pancreatic cancer cell line; assay: as above; type: cell-based
Text: as §1, §2, §3, §4, §5, §6, §7, §8

[8] = test system: Panc10.05 pancreatic cancer cell line; assay: as above; type: cell-based
Text: as §1, §2, §3, §4, §5, §6, §7, §8

[9] = test system: Panc2.03 pancreatic cancer cell line; assay: as above; type: cell-based
Text: as §1, §2, §3, §4, §5, §6, §7, §8

[10] = test system: Panc3.27 pancreatic cancer cell line; assay: as above; type: cell-based
Text: as §1, §2, §3, §4, §5, §6, §7, §8

[11] = test system: Panc4.03 pancreatic cancer cell line; assay: as above; type: cell-based
Text: as §1, §2, §3, §4, §5, §6, §7, §8

[12] = test system: SU.86.86 pancreatic cancer cell line; assay: as above; type: cell-based
Text: as §1, §2, §3, §4, §5, §6, §7, §8

[13] = test system: HCT116 colon cancer cells; assay: HCT116 xenograft model, tumor growth; type: in vivo, Female athymic nude mice
Protocol: Female athymic nude mice were implanted subcutaneously with HCT116 colon cancer cells. […] Mice were treated with LBH589 at 5, 10 or 20 mg/kg intravenously (iv) 5 times a week for 3 weeks or 75 mg/kg of 5-Fluorouracil intravenously once a week for 3 weeks. Animals were calipered weekly. Compound activity was determined as the percent change in tumor volume of treated animals over control animals (% T/C). The percentage of regression was determined as the percent change in the final tumor volume at the end of the study over the starting tumor volume. […] The results are described in FIG. 1.

[14] = test system: 19 pancreatic cancer cell lines; assay: Cell proliferation assays, panel of 19 pancreatic cancer cell lines, 6 days; type: cell-based; details: 6 days treatment
Protocol: A panel of 19 pancreatic cancer cell lines was independently assessed in cell proliferation assays. Cells were treated with DMSO vehicle control or varying concentrations of LBH589 for 6 days.

[15] = test system: 36 colon cancer cell lines; assay: Monolayer growth inhibition assay, panel summary; type: cell-based; details: 3 days treatment
Text: as §1, with “Twenty-four hours later, 10 μl of MTS solution, were added to one plates to determine the activity at the time of compound addition (T0).” left out, “The T0 plate served as a reference for initial activity at the beginning of the experiment.” left out
Compound addition began 24 hours after seeding, the same time as the T0 determination. […] The MTS solution was added (as for the T0 plate) and read four hours later. […]
Colon cancer cell lines were treated with DMSO vehicle control or varying concentrations of LBH589 for 3 days. Cell proliferation was measured on the day of cell plating and on the third day post-treatment. IC50 and LD50 values were calculated as described above.

[16] = 3 days, concentration reducing cell number to 50% of original inoculum

SMILES: Cc1[nH]c2ccccc2c1CCNCc1ccc(/C=C/C(=O)NO)cc1 [LBH589, N-hydroxy-3-[4-[[[2-(2-methyl-1H-indol-3-yl)ethyl]-amino]methyl]phenyl]-2E-2-propenamide]
- LD50 ([1]; AsPC1, 3 days, concentration reducing cell number to 50% of original inoculum): 372.4 nM
- IC50 ([1]; Homo sapiens, 72 h, AsPC1, 3 days treatment): 25.1 nM
- LD50 ([2]; BxPC3, 3 days, concentration reducing cell number to 50% of original inoculum): 104.8 nM
- IC50 ([2]; Homo sapiens, BXPC-3, 72 h, BxPC3, 3 days treatment): 15.9 nM
- LD50 ([3]; Capan1, 3 days, concentration reducing cell number to 50% of original inoculum): 191.5 nM
- IC50 ([3]; Homo sapiens, CAPAN-1, 72 h, Capan1, 3 days treatment): 55.6 nM
- LD50 [4, 16]: 2051.6 nM
- IC50 ([4]; Homo sapiens, 72 h, 3 days treatment): 123 nM
- IC50 ([5]; 72 h, 3 days treatment): 14.1 nM
- LD50 [5, 16]: 119.9 nM
- IC50 ([6]; Homo sapiens, MIA PaCa-2, 72 h, MiaPaCa2, 3 days treatment): 14.1 nM
- LD50 ([6]; MiaPaCa2, 3 days, concentration reducing cell number to 50% of original inoculum): 59.5 nM
- IC50 ([7]; Homo sapiens, PANC-1, 72 h, Panc1, 3 days treatment): 18.9 nM
- LD50 ([7]; Panc1, 3 days, concentration reducing cell number to 50% of original inoculum): 175.4 nM
- IC50 ([8]; Homo sapiens, Panc1005, 72 h, Panc10.05, 3 days treatment): 31.8 nM
- LD50 ([8]; Panc10.05, 3 days, concentration reducing cell number to 50% of original inoculum): 282.4 nM
- IC50 ([9]; Homo sapiens, Panc203, 72 h, Panc2.03, 3 days treatment): 22.4 nM
- LD50 ([9]; Panc2.03, 3 days, concentration reducing cell number to 50% of original inoculum): 599.5 nM
- LD50 ([10]; Panc3.27, 3 days, concentration reducing cell number to 50% of original inoculum): 276.8 nM
- IC50 ([10]; Pancreatic cancer cell, 72 h, Panc3.27, 3 days treatment): 38.5 nM
- LD50 ([11]; Panc4.03, 3 days, concentration reducing cell number to 50% of original inoculum): >10 µM
- IC50 ([11]; Pancreatic cancer cell, 72 h, Panc4.03, 3 days treatment): 20.3 nM
- IC50 ([12]; Homo sapiens, 72 h, SU.86.86, 3 days treatment): 51 nM
- LD50 ([12]; SU.86.86, 3 days, concentration reducing cell number to 50% of original inoculum): 170.4 nM
- % T/C (percent change in tumor volume of treated over control animals) ([13]; 5 mg/kg intravenously 5 times a week for 3 weeks): 17%
- % T/C (percent change in tumor volume of treated over control animals) ([13]; 10 mg/kg intravenously 5 times a week for 3 weeks): 6%
- tumor regression (percent change in final tumor volume over starting tumor volume) ([13]; 20 mg/kg intravenously 5 times a week for 3 weeks): 8%
- LD50 ([14]; 18 of the 19 pancreatic cancer cell lines): < 1 µM
- IC50 values ([14]; all 19 pancreatic cancer cell lines): low nanomolar
- IC50 values ([15]; all 36 colon cancer cell lines): low nanomolar
- LD50 ([15]; great majority of the colon cancer cell lines (n=31)): < 1 µM
